Patent US8076486B2, “Heteroaryl-substituted arylaminopyridine derivatives as MEK inhibitors” (Merck Serono S.A., priority 2006, dated 2011)

How the values were obtained:
[1] = tested on: human melanoma A375 cells; assay: Tumor Cell Proliferation Assay (ATP Lite), A375; type: cell-based; settings: A-375, 96 h, 4 days, ATPlite
Method: (§1) Assay 2: Tumor Cell Proliferation Assays (ATP Lite)
(§2) Murine colon C26 (1500 cells/well), human melanoma A375 (2000 cells/well), or human pancreatic MiaPaCa-2 cells (2000 cells/well) were plated in white, 96 well plates (Corning) in growth media (DMEM with 10% fetal bovine serum, 2 mM glutamine for C26 and MiaPaCa-2, and RPMI with 10% fetal bovine serum, 2 mM glutamine for A375) and cultured overnight at 37° C. in a humidified, 5% CO2 incubator. Inhibitors were serially diluted in 100% DMSO and subsequently added to the cells, in growth media, to reach a final concentration of 0.25% DMSO. The cells were incubated for 4 days in the presence of the test compounds and the proliferation was quantitated using the ATPlite cell proliferation kit (Packard).

[2] = tested on: human pancreatic MiaPaCa-2 cells; assay: Tumor Cell Proliferation Assay (ATP Lite), MiaPaCa-2; type: cell-based; settings: MIA PaCa-2, 96 h, 4 days, ATPlite, read-out: MiaPaCa2 cell proliferation IC50
Method: as §1, §2

A375 Xenograft = assay: Tumor Growth Inhibition in A375 Xenograft Studies (Malignant Melanoma Model); type: in vivo, nude (nu/nu) mice; settings: A375 xenograft in male nude mice, to Day 14
Method: In vivo Efficacy Evaluation: Tumor Growth Inhibition in A375 Xenograft Studies (Malignant Melanoma Model)
Male nude (nu/nu) mice (100 total, 24-26 g body wt) were purchased from Charles River Laboratories. Animals were injected subcutaneously above the right foreleg with 5×10^6 A375 cells in 100 ul of PBS. Tumors were measured with calipers 4, 7, 11 and 14 days after cells were implanted. Tumor length (l) and width (w) were measured and tumor volume was calculated with the equation l*w^2/2. At 16 days after cancer cells were implanted, tumors had reached an average volume of 93 mm^3, at which time the animals were sorted into 6 groups so that each group had the same mean tumor volume. The vehicle used for dosing the compound in suspension was 10% Tween 80 in water.
Treatments began on the afternoon of the 16th day after cancer cell injections, which was designated as Day 0. Tumor volume and body weight was measured for each animal 3 times per week until Day 14. On Day 14, all animals were euthanized, tumors removed and weighted.

human MEK1 = human MEK1 (Homo sapiens, UniProt Q02750, S218E/S222E); assay: MEK-1 Enzyme Assay (LANCE-HTRF); type: biochemical; settings: MEK-1 EE, ERK-2K52A substrate, 9 uM ATP, 1.5 hrs
Chain of human MEK1 (Q02750 whole entry S218E/S222E): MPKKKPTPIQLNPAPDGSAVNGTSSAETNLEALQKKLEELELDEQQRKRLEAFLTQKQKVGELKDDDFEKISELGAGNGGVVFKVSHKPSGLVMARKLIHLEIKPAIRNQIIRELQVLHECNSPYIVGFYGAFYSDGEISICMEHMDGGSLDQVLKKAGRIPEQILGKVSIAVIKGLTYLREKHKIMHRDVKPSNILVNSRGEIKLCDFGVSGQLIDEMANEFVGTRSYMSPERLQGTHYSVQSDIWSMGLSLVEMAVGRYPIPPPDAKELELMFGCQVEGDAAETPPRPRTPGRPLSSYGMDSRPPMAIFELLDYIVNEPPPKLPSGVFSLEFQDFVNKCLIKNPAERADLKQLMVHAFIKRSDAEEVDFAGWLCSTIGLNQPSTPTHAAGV
Method: Assay 1: MEK-1 Enzyme Assay (LANCE-HTRF)
Inhibition of human MEK1 kinase activity was monitored with a homogenous, fluorescence-based assay. The assay uses time resolved fluorescence resonance energy transfer to probe for phosphorylation of ERK1 by MEK1. The detailed procedure is described in the following:
Constititutively active MEK-1 EE (150 ng/well) and ERK-2K52A (110 ng/well) were incubated in black, 384 well Optiplates (Perkin Elmer) for 1.5 hrs at room temperature, in the presence of increasing concentrations of inhibitors. The total reaction volume was 50 ul. The inhibitors were serial diluted in kinase buffer (9 uM ATP, 50 mM Tris-Hcl pH 8.0, 10 mM MgCl2, 1 mM DTT and 100 uM Na3VO4), to a final concentration of 1% DMSO. At the end of the incubation, the enzyme reaction was quenched by adding 50 ul of assay buffer containing 50 mM Tris-Hcl, 50 mM EDTA, 0.1% BSA and a mixture of 1.25 ug/mL europium labeled anti-phosphotyrosine mAb (Perkin Elmer) and 5 ug/mL of allophycocyanin labeled anti-GST antibody (CIS-US). Plates were agitated on a plate shaker for 30 minutes and the phosphorylation of the ERK-2K52A substrate was measured by homogeneous time resolved fluorescence (HTRF) at 340 nm excitation and […] emission filters on the VICTOR V fluorescence plate reader. Phosphorylation is expressed as a ratio of 665 nM signal×10,000/615 nM signal. To assess the inhibitory potential of the compounds, IC50-values were determined.

Murine colon C26 cells = assay: Tumor Cell Proliferation Assay (ATP Lite), C26; type: cell-based; settings: Mus musculus, 96 h, 4 days, ATPlite
Method: as §1, §2

| SMILES | IC50 [1] [nM] | IC50 [2] [nM] | IC50 (human MEK1) [nM] | IC50 (Murine colon C26 cells) [nM] | effect on tumor growth (A375 Xenograft; dose of 0.5 mg/kg) | effect on tumor growth (A375 Xenograft; dose of 10 mg/kg) |
| --- | --- | --- | --- | --- | --- | --- |
| Fc1cc(I)ccc1Nc1cnccc1-c1ncon1 [Example 56, (2-Fluoro-4-iodo-phenyl)-(4-[1,2,4]oxadiazol-3-yl-pyridin-3-yl)-amine] | 3000 to 25000 | 3000 to 25000 | ≤ 3000 | > 25000 |  |  |
| Fc1cc(I)ccc1Nc1cncc(-c2ccccc2F)c1-c1c[nH]nn1 [Example 60, (2-Fluoro-4-iodo-phenyl)-[5-(2-fluoro-phenyl)-4-(1H-[1,2,3]triazol-4-yl)-pyridin-3-yl]-amine] | ≤ 3000 | ≤ 3000 | ≤ 3000 | ≤ 3000 |  |  |
| Fc1cc(I)ccc1Nc1cnccc1-c1ccn[nH]1 [Example 61, (2-Fluoro-4-iodo-phenyl)-[4-(2H-pyrazol-3-yl)-pyridin-3-yl]-amine] | ≤ 3000 | ≤ 3000 | ≤ 3000 | 3000 to 25000 |  |  |
| Fc1cc(I)ccc1Nc1cnccc1-c1nnn[nH]1 [Example 62, N-(2-fluoro-4-iodophenyl)-4-(1H-tetrazol-5-yl)pyridin-3-amine] | > 25000 | > 25000 | ≤ 3000 | > 25000 |  |  |
| C[Si](C)(C)c1[nH]nnc1-c1ccncc1Nc1ccc(I)cc1F [Example 63, N-(2-fluoro-4-iodophenyl)-4-[5-(trimethylsilyl)-1H-1,2,3-triazol-4-yl]pyridin-3-amine] | ≤ 3000 | ≤ 3000 | ≤ 3000 | ≤ 3000 |  |  |
| Fc1cc(I)ccc1Nc1cnccc1-c1c[nH]nn1 [Example 64, N-(2-fluoro-4-iodophenyl)-4-(1H-1,2,3-triazol-4-yl)pyridin-3-amine] | ≤ 3000 | ≤ 3000 | ≤ 3000 | ≤ 3000 |  |  |
| Fc1cc(I)ccc1Nc1cnccc1-c1cn[nH]c1 [Example 65, (2-Fluoro-4-iodo-phenyl)-[4-(1H-pyrazol-4-yl)-pyridin-3-yl]-amine] | ≤ 3000 | ≤ 3000 | ≤ 3000 | ≤ 3000 |  |  |

Further lines, with some results ahead:

| IC50 [1] [nM] | IC50 [2] [nM] | IC50 (human MEK1) [nM] | IC50 (Murine colon C26 cells) [nM] | SMILES | effect on tumor growth (A375 Xenograft; dose of 0.5 mg/kg) | effect on tumor growth (A375 Xenograft; dose of 10 mg/kg) |
| --- | --- | --- | --- | --- | --- | --- |
| ≤ 3000 | ≤ 3000 | ≤ 3000 | ≤ 3000 | Nc1nnc(-c2ccncc2Nc2ccc(I)cc2F)o1 [Example 2, [4-(5-Amino-[1,3,4]oxadiazol-2-yl)-pyridin-3-yl]-(2-fluoro-4-iodo-phenyl)-amine] | significant tumor growth inhibition | tumor regression |
| ≤ 3000 | ≤ 3000 | ≤ 3000 | ≤ 3000 | CCOC(=O)C(C)Nc1nnc(-c2ccncc2Nc2ccc(I)cc2F)o1 (stereo not shown) [Example 52, 2-{5-[3-(2-Fluoro-4-iodo-phenylamino)-pyridin-4-yl]-[1,3,4]oxadiazol-2-ylamino}-propionic acid ethyl ester] |  |  |
| ≤ 3000 | 3000 to 25000 | ≤ 3000 | ≤ 3000 | CC(Nc1nnc(-c2ccncc2Nc2ccc(I)cc2F)o1)C(=O)O (stereo not shown) [Example 53, 2-{5-[3-(2-Fluoro-4-iodo-phenylamino)-pyridin-4-yl]-[1,3,4]oxadiazol-2-ylamino}-propionic acid] |  |  |
| ≤ 3000 | ≤ 3000 | ≤ 3000 | ≤ 3000 | Nc1nnc(-c2ccncc2Nc2ccc(I)cc2F)s1 [Example 54, [4-(5-Amino-[1,3,4]thiadiazol-2-yl)-pyridin-3-yl]-(2-fluoro-4-iodo-phenyl)-amine] |  |  |
| ≤ 3000 | ≤ 3000 | ≤ 3000 | ≤ 3000 | Cn1c(-c2ccncc2Nc2ccc(I)cc2F)n[nH]c1=O [Example 55, 5-[3-(2-Fluoro-4-iodo-phenylamino)-pyridin-4-yl]-4-methyl-2,4-dihydro-[1,2,4]triazol-3-one] |  |  |
| ≤ 3000 | ≤ 3000 | ≤ 3000 | ≤ 3000 | Nc1nnc(-c2c(Nc3ccc(I)cc3F)cncc2-c2ccccc2Cl)o1 [Example 57, [4-(5-Amino-[1,3,4]oxadiazol-2-yl)-5-(2-chloro-phenyl)-pyridin-3-yl]-(2-fluoro-4-iodo-phenyl)-amine] |  |  |
| ≤ 3000 | ≤ 3000 | ≤ 3000 | ≤ 3000 | Nc1nnc(-c2c(Nc3ccc(I)cc3F)cncc2-c2ccccc2F)o1 [Example 58, [4-(5-Amino-[1,3,4]oxadiazol-2-yl)-5-(2-fluoro-phenyl)-pyridin-3-yl]-(2-fluoro-4-iodo-phenyl)-amine] |  |  |
